Data as given in publication PMC3761942 (Bioorganic & medicinal chemistry, 2013).
“Also recorded” adds a separate entry of the source.

Assays:
[1] = target: T1, guanase from rabbit liver (Oryctolagus cuniculus, UniProt G1T386); format: biochemical
T1 sequence (G1T386 1-454): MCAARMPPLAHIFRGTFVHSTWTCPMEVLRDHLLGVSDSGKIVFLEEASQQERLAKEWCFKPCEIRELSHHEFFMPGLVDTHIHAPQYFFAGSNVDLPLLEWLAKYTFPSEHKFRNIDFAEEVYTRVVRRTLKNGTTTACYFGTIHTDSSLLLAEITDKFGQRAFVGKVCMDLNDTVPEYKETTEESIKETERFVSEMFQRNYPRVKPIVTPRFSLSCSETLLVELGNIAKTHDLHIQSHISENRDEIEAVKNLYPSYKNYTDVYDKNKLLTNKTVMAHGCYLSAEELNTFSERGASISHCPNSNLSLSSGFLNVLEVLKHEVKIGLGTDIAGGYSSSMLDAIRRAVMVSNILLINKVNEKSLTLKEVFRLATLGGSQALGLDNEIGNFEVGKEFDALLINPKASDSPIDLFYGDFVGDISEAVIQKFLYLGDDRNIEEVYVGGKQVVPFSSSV

guanase = settings: in tissue cultures; cited from earlier work
[2] = Chemical stability in aqueous medium; format: physicochemical

COC1CNC(=O)c2nc[nH]c2N1Cc1ccccc1 (centres unmarked) [Compound 9, 4-Benzyl-5-methoxy-4,5,6,7-tetrahydroimidazo[4,5-e][1,4]diazepin-8(3H)-one]
Ki ([1]; Ki): ~8 µM

O=C1NC(O)CNc2nc[nH]c21 (centres unmarked) [Azepinomycin]
IC50 (guanase): ~5 µM

O=C1NCC(O)Nc2c1ncn2Cc1ccccc1 (centres unmarked) [Compound 1, 3-Benzyl-5-hydroxy-4,5,6,7-tetrahydroimidazo[4,5-e] [1,4]diazepin-8(3H)-one]
Stability in aqueous acidic environment ([2]; aqueous acidic environment (1N HCl)): reasonably stable
Stability under neutral conditions ([2]; neutral aqueous medium): quite unstable and decomposed; also recorded: decomposes in neutral aqueous medium over time

Nc1nc2nc[nH]c2c(=O)[nH]1 [guanine, reference compound]
Km ([1]; read-out: KM of enzyme with guanine as substrate, 25 °C, pH 7.4): 5.5 µM
